Results published in patent US8901301B2, “Pyrrolo[2,3-]pyridine kinase inhibitors” (Plexxikon Inc., priority 2009, dated 2014).

Experiments:
Itk = molecular target: T1, Itk (Homo sapiens, UniProt Q08881); assay: Biochemical inhibitory activity, other protein kinases: Itk; conditions: listing of the kinase means IC50 >1 μM
T1 sequence (Q08881 1-620): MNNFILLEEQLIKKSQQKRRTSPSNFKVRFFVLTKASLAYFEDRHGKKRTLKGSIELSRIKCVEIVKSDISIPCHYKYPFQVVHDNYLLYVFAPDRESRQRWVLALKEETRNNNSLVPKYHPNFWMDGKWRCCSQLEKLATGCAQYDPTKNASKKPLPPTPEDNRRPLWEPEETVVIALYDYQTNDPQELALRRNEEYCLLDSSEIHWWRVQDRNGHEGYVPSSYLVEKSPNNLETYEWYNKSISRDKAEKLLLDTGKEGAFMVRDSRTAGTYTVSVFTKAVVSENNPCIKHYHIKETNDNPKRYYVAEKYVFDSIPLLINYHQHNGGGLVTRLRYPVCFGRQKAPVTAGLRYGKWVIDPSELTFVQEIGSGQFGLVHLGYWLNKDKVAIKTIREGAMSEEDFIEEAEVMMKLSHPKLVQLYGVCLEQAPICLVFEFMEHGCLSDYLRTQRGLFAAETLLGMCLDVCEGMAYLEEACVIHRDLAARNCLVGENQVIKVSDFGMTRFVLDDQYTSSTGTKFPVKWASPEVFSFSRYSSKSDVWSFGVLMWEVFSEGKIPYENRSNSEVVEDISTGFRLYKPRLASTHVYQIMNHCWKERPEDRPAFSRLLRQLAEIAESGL

PI3Kδ = PI3Kδ (Homo sapiens, UniProt O00329); assay: Biochemical inhibitory activity, other protein kinases: PI3Kδ; conditions: listing of the kinase means IC50 >1 μM
PI3Kα = PI3Kα (Homo sapiens, UniProt P42336); assay: Biochemical inhibitory activity, other protein kinases: PI3Kα; conditions: listing of the kinase means IC50 >1 μM
MAPKAPK2 = MAPKAPK2 (Homo sapiens, UniProt P49137); assay: Biochemical inhibitory activity, other protein kinases: MAPKAPK2; conditions: listing of the kinase means IC50 >1 μM
Brk = Brk (Homo sapiens, UniProt Q13882); assay: Biochemical inhibitory activity, other protein kinases: Brk; conditions: listing of the kinase means IC50 <1 μM
PI3Kγ = PI3Kγ (Homo sapiens, UniProt P48736); assay: Biochemical inhibitory activity, other protein kinases: PI3Kγ; conditions: listing of the kinase means IC50 >1 μM
Jnk1 = Jnk1 (Homo sapiens, UniProt P45983); assay: Biochemical inhibitory activity, other protein kinases: Jnk1; conditions: listing of the kinase means IC50 >1 μM
Trk = Trk (Homo sapiens, UniProt P04629); assay: Biochemical inhibitory activity, other protein kinases: Trk; conditions: listing of the kinase means IC50 >1 μM
mTor = mTor (Homo sapiens, UniProt P42345); assay: Biochemical inhibitory activity, other protein kinases: mTor; conditions: listing of the kinase means IC50 >1 μM
TrkA = TrkA (Homo sapiens, UniProt P04629); assay: Biochemical inhibitory activity, other protein kinases: TrkA; conditions: listing of the kinase means IC50 >1 μM
Ack1 = Ack1 (Homo sapiens, UniProt Q07912); assay: Biochemical inhibitory activity, other protein kinases: Ack1; conditions: listing of the kinase means IC50 <1 μM
Flt1 = Flt1 (Homo sapiens, UniProt P17948); assay: Biochemical inhibitory activity, other protein kinases: Flt1; conditions: listing of the kinase means IC50 >1 μM
Chain of Flt1 (P17948 27-1338, species assumed): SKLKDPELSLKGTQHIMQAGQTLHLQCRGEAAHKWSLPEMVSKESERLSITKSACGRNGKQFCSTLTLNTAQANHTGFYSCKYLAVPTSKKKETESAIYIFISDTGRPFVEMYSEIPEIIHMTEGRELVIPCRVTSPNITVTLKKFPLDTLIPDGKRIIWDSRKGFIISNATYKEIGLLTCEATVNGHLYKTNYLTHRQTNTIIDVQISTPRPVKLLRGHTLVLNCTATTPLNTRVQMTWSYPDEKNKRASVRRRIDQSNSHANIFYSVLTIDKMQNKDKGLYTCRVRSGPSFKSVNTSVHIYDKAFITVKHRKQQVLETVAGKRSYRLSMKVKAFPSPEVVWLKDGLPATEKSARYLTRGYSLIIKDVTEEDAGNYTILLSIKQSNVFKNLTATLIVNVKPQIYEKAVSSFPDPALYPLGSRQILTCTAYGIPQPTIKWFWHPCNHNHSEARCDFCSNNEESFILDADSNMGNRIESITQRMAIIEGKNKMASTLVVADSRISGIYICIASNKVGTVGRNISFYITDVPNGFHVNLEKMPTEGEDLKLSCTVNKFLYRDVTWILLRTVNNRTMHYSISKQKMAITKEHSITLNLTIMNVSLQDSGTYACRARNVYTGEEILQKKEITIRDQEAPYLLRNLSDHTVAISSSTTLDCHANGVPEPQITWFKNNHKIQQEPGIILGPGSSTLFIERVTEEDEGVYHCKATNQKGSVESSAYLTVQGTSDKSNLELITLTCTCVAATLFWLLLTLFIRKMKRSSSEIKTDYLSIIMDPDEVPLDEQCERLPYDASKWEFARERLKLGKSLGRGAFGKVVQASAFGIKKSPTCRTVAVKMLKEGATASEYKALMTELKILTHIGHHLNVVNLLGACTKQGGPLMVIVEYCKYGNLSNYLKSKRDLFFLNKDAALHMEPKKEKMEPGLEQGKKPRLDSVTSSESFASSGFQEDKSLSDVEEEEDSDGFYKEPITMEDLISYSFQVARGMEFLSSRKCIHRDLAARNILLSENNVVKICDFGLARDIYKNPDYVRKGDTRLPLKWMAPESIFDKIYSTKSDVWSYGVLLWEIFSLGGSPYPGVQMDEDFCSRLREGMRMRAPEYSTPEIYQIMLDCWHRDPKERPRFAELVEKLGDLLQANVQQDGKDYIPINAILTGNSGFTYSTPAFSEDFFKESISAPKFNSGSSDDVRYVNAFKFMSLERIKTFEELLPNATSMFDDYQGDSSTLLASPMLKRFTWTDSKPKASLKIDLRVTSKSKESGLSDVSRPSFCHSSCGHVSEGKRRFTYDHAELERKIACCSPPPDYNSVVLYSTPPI

Chain of MAPKAPK2 (P49137 whole entry, species assumed): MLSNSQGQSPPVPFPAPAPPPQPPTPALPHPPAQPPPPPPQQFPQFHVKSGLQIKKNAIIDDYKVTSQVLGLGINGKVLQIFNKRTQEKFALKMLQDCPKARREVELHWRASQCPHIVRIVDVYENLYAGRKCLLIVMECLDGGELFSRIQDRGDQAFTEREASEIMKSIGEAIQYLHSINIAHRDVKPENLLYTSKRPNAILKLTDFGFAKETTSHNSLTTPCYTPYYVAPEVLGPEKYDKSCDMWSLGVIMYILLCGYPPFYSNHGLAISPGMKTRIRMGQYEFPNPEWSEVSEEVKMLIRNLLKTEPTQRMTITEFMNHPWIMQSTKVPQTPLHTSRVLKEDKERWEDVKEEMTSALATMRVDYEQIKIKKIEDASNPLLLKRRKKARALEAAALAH
Chain of Jnk1 (P45983 whole entry, species assumed): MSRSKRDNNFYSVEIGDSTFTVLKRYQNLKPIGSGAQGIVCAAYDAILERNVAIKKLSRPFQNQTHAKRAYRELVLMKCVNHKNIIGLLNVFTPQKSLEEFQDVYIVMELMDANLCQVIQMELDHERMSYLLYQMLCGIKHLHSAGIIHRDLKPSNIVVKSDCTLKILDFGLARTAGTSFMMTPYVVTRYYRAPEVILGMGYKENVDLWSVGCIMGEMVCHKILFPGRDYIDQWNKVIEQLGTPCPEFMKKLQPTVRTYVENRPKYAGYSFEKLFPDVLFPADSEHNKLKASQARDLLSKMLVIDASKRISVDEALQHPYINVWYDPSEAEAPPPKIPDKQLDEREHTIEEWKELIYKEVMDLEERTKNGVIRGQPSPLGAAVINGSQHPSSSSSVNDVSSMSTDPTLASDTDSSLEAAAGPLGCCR
Chain of TrkA (P04629 33-796, species assumed): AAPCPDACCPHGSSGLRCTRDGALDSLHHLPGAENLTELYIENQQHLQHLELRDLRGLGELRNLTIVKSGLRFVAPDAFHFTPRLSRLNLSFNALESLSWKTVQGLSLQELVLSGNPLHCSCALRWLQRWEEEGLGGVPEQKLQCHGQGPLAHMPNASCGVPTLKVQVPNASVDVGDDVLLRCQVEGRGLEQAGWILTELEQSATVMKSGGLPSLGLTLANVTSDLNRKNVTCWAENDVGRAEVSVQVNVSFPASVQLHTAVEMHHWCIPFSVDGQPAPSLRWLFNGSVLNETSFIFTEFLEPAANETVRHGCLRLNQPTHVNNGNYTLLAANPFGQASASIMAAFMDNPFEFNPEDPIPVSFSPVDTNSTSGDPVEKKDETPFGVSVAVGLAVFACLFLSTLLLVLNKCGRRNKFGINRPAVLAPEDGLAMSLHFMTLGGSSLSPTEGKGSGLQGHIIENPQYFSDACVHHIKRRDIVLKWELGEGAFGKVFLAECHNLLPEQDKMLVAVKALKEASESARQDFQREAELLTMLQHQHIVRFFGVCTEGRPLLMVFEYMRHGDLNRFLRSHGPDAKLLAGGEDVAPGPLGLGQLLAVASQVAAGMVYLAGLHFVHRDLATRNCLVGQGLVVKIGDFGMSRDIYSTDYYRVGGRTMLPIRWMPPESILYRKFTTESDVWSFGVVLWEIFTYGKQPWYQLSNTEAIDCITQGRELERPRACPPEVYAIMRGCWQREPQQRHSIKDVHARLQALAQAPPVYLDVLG
Chain of Brk (Q13882 whole entry, species assumed): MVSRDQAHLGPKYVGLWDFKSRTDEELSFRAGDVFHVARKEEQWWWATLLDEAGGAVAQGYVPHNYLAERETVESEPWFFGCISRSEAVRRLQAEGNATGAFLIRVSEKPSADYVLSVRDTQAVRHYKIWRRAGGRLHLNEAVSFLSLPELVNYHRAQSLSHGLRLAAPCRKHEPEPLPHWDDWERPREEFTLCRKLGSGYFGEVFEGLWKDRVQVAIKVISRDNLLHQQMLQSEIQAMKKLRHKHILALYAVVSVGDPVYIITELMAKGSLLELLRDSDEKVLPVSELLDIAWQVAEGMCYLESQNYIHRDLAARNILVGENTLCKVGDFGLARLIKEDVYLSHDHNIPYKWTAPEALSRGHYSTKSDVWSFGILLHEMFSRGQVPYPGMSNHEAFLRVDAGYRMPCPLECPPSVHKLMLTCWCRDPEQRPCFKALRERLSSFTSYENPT
Chain of Trk (P04629 33-796, species assumed): as the sequence (P04629 33-796, species assumed) above
Chain of Ack1 (Q07912 whole entry, species assumed): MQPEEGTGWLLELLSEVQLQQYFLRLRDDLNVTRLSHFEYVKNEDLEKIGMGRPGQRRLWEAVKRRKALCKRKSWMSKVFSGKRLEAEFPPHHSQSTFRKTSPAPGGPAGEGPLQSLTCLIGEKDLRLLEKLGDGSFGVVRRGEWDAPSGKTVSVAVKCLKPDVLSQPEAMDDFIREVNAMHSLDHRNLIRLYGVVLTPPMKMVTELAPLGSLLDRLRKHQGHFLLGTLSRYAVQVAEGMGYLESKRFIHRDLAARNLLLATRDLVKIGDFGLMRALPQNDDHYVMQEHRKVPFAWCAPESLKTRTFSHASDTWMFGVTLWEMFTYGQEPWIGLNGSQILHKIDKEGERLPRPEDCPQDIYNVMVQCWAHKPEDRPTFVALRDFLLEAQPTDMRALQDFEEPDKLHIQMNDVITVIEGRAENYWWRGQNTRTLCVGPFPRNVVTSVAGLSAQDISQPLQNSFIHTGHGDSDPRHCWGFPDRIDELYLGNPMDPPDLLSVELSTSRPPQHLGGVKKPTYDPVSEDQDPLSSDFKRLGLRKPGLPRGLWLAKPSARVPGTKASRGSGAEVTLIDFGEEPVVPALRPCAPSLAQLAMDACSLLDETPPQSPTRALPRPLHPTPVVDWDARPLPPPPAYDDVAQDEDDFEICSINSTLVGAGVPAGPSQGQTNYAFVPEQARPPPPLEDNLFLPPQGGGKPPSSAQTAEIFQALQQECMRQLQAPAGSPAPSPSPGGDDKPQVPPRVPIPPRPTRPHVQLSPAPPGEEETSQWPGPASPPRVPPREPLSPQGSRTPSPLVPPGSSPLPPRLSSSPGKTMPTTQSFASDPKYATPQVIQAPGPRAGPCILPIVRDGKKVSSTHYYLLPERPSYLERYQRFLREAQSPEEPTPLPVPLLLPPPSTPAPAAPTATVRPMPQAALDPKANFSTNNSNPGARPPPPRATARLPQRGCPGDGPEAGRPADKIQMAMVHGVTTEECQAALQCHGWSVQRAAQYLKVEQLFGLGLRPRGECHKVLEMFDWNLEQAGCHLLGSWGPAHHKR

Row | SMILES | Kinase having IC50 of >1 μM (Itk) | Kinase having IC50 of >1 μM (MAPKAPK2) | Kinase having IC50 of >1 μM (Jnk1) | other results
1 | CCCS(=O)(=O)Nc1ccc(F)c(C(=O)c2c[nH]c3ncc(-c4cnc(OC)nc4)cc23)c1F [Compound P-0001, propane-1-sulfonic acid {2,4-difluoro-3-[5-(2-methoxy-pyrimidin-5-yl)-1H-pyrrolo[2,3-b]pyridine-3-carbonyl]-phenyl}-amide] | Itk | MAPKAPK2 | Jnk1 | Kinase having IC50 of >1 μM (PI3Kδ): PI3Kδ; Kinase having IC50 of >1 μM (PI3Kα): PI3Kα; Kinase having IC50 of <1 μM (Brk): Brk; Kinase having IC50 of >1 μM (PI3Kγ): PI3Kγ; Kinase having IC50 of >1 μM (Trk): Trk; Kinase having IC50 of >1 μM (mTor): mTor
2 | CCCS(=O)(=O)Nc1ccc(F)c(C(=O)c2c[nH]c3ncc(C#N)cc23)c1F [Compound P-0002, propane-1-sulfonic acid [3-(5-cyano-1H-pyrrolo[2,3-b]pyridine-3-carbonyl)-2,4-difluoro-phenyl]-amide] | Itk | MAPKAPK2 |  | Kinase having IC50 of >1 μM (TrkA): TrkA; Kinase having IC50 of <1 μM (Ack1): Ack1; Kinase having IC50 of <1 μM (Brk): Brk; Kinase having IC50 of >1 μM (Flt1): Flt1
3 | CCCS(=O)(=O)Nc1cccc(C(=O)c2c[nH]c3ncc(C#N)cc23)c1F [Compound P-0003, propane-1-sulfonic acid [3-(5-cyano-1H-pyrrolo[2,3-b]pyridine-3-carbonyl)-2-fluoro-phenyl]-amide] |  | MAPKAPK2 |  | Kinase having IC50 of >1 μM (TrkA): TrkA
4 | N#Cc1cnc2[nH]cc(C(=O)c3c(F)ccc(NS(=O)(=O)c4cc(F)ccc4F)c3F)c2c1 [Compound P-0004, N-[3-(5-cyano-1H-pyrrolo[2,3-b]pyridine-3-carbonyl)-2,4-difluoro-phenyl]-2,5-difluoro-benzenesulfonamide] | Itk |  | Jnk1 | 
5 | N#Cc1cnc2[nH]cc(C(=O)c3c(F)ccc(NS(=O)(=O)c4cccc(F)c4)c3F)c2c1 [Compound P-0005, N-[3-(5-cyano-1H-pyrrolo[2,3-b]pyridine-3-carbonyl)-2,4-difluoro-phenyl]-3-fluoro-benzenesulfonamide] | Itk |  | Jnk1 | 
6 | N#Cc1cnc2[nH]cc(C(=O)c3c(F)ccc(NS(=O)(=O)N4CCCC4)c3F)c2c1 [Compound P-0006, pyrrolidine-1-sulfonic acid [3-(5-cyano-1H-pyrrolo[2,3-b]pyridine-3-carbonyl)-2,4-difluoro-phenyl]-amide] |  | MAPKAPK2 |  | 
7 | CN(C)S(=O)(=O)Nc1ccc(F)c(C(=O)c2c[nH]c3ncc(C#N)cc23)c1F [Compound P-0007, N,N-dimethylamino-sulfonic acid [3-(5-cyano-1H-pyrrolo[2,3-b]pyridine-3-carbonyl)-2,4-difluoro-phenyl]-amide] | Itk | MAPKAPK2 | Jnk1 | 
